Laboratory results published in ChEMBL document CHEMBL5053536, “Discovery of Quinazoline-2,4(1H,3H)-dione Derivatives Containing 3-Substituted Piperizines as Potent PARP-1/2 Inhibitors─Design, Synthesis, In Vivo Antitumor Activity, and X-ray Crystal Structure Analysis” (J Med Chem, 2021).
Calls of active or inactive are those of the source. No cut-off for these calls is given here.

What was measured:
[1] = Half life in Sprague-Dawley rat at 20 mg/kg, po measured upto 24 hrs by LC-MS/MS analysis; format: ADME, organism-based; details: in vivo
U-251 [2] = experiment: Inhibition of PARP1/2-mediated DNA repair in human U-251 cells assessed as increase in […] expression at 1 to 10 uM after 24 hrs in absence of TMZ by Western blot analysis; format: cell-based; details: dose 1-10 µM
MX1 = experiment: Inhibition of PARP1/2 in human MX1 cells assessed as reduction in PAR formation at 1 to 10 uM after 24 hrs by Western blot analysis; format: cell-based; details: dose 1-10 µM
U-87 MG [3] = experiment: Antitumor activity against human U-87MG cells xenografted in BALB/c mouse assessed as T/C ratio at 50 mg/kg, po administered once daily for 5 days and measured upto 32 days in presence of 30 mg/kg TMZ by MRI scanner; format: functional, U-87MG ATCC; details: time <= 32 day
Mus musculus [4] = experiment: Toxicity in BALB/c mouse xenografted with human U-87MG cells assessed as effect on body weight at 50 mg/kg, po administered once daily for 5 days and measured on day 8 in presence of 30 mg/kg TMZ (reference value: 18.5 +/- 1 g); format: organism-based; details: in vivo, 192 h, time 8 day
MDA-MB-436 [5] = experiment: Antitumor activity against human MDA-MB-436 cells xenografted in athymic nu/nu mouse assessed as tumor growth inhibition at 20 to 80 mg/kg, po administered once daily for 17 days; format: functional; details: dose 20-80 mg/kg, time 17 day
[6] = Oral bioavailability in Beagle dog at 20 mg/kg measured upto 24 hrs by LC-MS/MS analysis; format: ADME, organism-based, Canis lupus familiaris; details: in vivo
[7] = MRT(0 to t) in Sprague-Dawley rat at 20 mg/kg, po measured upto 24 hrs by LC-MS/MS analysis; format: ADME, organism-based; details: in vivo
[8] = AUC(0 to infinity) in BALB/c mouse at 25 mg/kg, po measured upto 24 hrs by LC-MS/MS analysis; format: ADME, organism-based; parameters: time < 24 hrs, dose 25 mg/kg, route po; details: in vivo
[9] = biological target: Poly [ADP-ribose] polymerase 2 (Homo sapiens, UniProt Q9UGN5); experiment: Binding affinity to recombinant human PARP2 assessed as dissociation half life by SPR assay
U-251 [10] = experiment: Inhibition of PARP1/2-mediated DNA repair in human U-251 cells assessed as reduction in PAR formation at 1 to 10 uM after 24 hrs in absence of TMZ by Western blot analysis; format: cell-based; details: dose 1-10 µM
T98G [11] = experiment: Inhibition of PARP1/2-mediated DNA repair in human T98G cells assessed as increase in […] expression at 1 to 10 uM after 24 hrs in presence of TMZ by Western blot analysis; format: cell-based; details: dose 1-10 µM
U-251 [12] = experiment: Inhibition of PARP1/2-mediated DNA repair in human U-251 cells assessed as reduction in PAR formation at 1 to 10 uM after 24 hrs in presence of TMZ by Western blot analysis; format: cell-based; details: dose 1-10 µM
[13] = AUC(0 to t) in Beagle dog at 20 mg/kg, po measured upto 24 hrs by LC-MS/MS analysis; format: ADME, organism-based, Canis lupus familiaris; parameters: time < 24 hrs, dose 20 mg/kg, route po; details: in vivo
[14] = Tmax in BALB/c mouse at 25 mg/kg, po measured upto 24 hrs by LC-MS/MS analysis; format: ADME, organism-based; details: in vivo
[15] = AUC(0 to t) in Beagle dog at 0.4 mg/kg, iv measured upto 24 hrs by LC-MS/MS analysis; format: ADME, organism-based, Canis lupus familiaris; parameters: time < 24 hrs, dose 0.4 mg/kg, route iv; details: in vivo
U-87 MG [16] = experiment: Antitumor activity against human U-87MG cells xenografted in BALB/c mouse assessed as tumor growth inhibition at 50 mg/kg, po administered once daily for 5 days and measured upto 32 days in presence of 30 mg/kg TMZ by MRI scanner; format: functional, U-87MG ATCC; details: 768 h, time <= 32 day, read-out: TGI
Mus musculus [17] = experiment: Toxicity in BALB/c mouse xenografted with human U-87MG cells assessed as effect on body weight at 50 mg/kg, po administered once daily for 5 days and measured on day 8 (reference value: 18.2 +/- 0.6 g); format: organism-based; details: in vivo, 192 h, time 8 day
[18] = biological target: T1, Poly [ADP-ribose] polymerase 1 (Homo sapiens, UniProt P09874); experiment: Inhibition of recombinant human PARP1 using NAD+ as substrate incubated for 1 hr by ELISA
Daoy = experiment: Cytotoxicity against human Daoy cells assessed as reduction in cell viability at 5 to 10 uM incubated for 72 hrs in presence of TMZ by MTT assay; format: functional, cell-based; details: dose 5-10 µM
[19] = MRT(0 to t) in Beagle dog at 0.4 mg/kg, iv measured upto 24 hrs by LC-MS/MS analysis; format: ADME, organism-based, Canis lupus familiaris; details: in vivo
U-87 MG [20] = experiment: Antitumor activity against human U-87MG cells xenografted in BALB/c mouse assessed as reduction in tumor volume at 50 mg/kg, po administered once daily for 5 days and measured on day 8 in presence of 30 mg/kg TMZ by MRI scanner (reference value: 202 +/- 120.4 mm3); format: functional, U-87MG ATCC; details: time 8 day
[21] = Tmax in Beagle dog at 20 mg/kg, po measured upto 24 hrs by LC-MS/MS analysis; format: ADME, organism-based, Canis lupus familiaris; details: in vivo
MDA-MB-436 [22] = experiment: Antitumor activity against human MDA-MB-436 cells xenografted in po dosed athymic nu/nu mouse assessed as tumor growth inhibition administered once daily for 17 days; format: functional, organism-based; details: time 17.0 day
[23] = Acute toxicity in po dosed Crl: […](ICR)-BR mouse after 14 days; format: organism-based; details: in vivo, time 14 day
U-87 MG [24] = experiment: Antitumor activity against human U-87MG cells xenografted in BALB/c mouse assessed as T/C ratio at 25 mg/kg, po administered once daily for 5 days and measured upto 32 days in presence of 30 mg/kg TMZ by MRI scanner; format: functional, U-87MG ATCC; details: time <= 32 day
U-251 [25] = experiment: Cytotoxicity against TMZ-resistant human U-251 cells assessed as reduction in cell viability at 5 to 10 uM incubated for 72 hrs in presence of TMZ by MTT assay; format: functional, cell-based; details: dose 5-10 µM
T98G [26] = experiment: Inhibition of PARP1/2-mediated DNA repair in human T98G cells assessed as reduction in PAR formation at 1 to 10 uM after 24 hrs in absence of TMZ by Western blot analysis; format: cell-based; details: dose 1-10 µM
[27] = biological target: T1, Poly [ADP-ribose] polymerase 1; experiment: Binding affinity to recombinant human PARP1 assessed as dissociation constant by SPR assay
[28] = MRT(0 to infinity) in Sprague-Dawley rat at 20 mg/kg, po measured upto 24 hrs by LC-MS/MS analysis; format: ADME, organism-based; details: in vivo
A 172 = experiment: Cytotoxicity against human A172 cells assessed as reduction in cell viability at 5 to 10 uM incubated for 72 hrs in presence of TMZ by MTT assay; format: functional, cell-based; details: dose 5-10 µM
Homo sapiens = species: Homo sapiens; experiment: Selectivity index, ratio of IC50 for inhibition of recombinant human PARP2 to IC50 for inhibition of recombinant human PARP1
[29] = MRT(0 to t) in Beagle dog at 20 mg/kg, po measured upto 24 hrs by LC-MS/MS analysis; format: ADME, organism-based, Canis lupus familiaris; details: in vivo
[30] = AUC(0 to infinity) in Beagle dog at 20 mg/kg, po measured upto 24 hrs by LC-MS/MS analysis; format: ADME, organism-based, Canis lupus familiaris; parameters: dose 20 mg/kg, time < 24 hrs, route po; details: in vivo
[31] = Cmax in Sprague-Dawley rat at 20 mg/kg, po measured upto 24 hrs by LC-MS/MS analysis; format: ADME, organism-based; parameters: time < 24 hrs, dose 20 mg/kg, route po; details: in vivo
[32] = MRT(0 to t) in BALB/c mouse at 25 mg/kg, po measured upto 24 hrs by LC-MS/MS analysis; format: ADME, organism-based; details: in vivo

T1 sequence (P09874 whole entry): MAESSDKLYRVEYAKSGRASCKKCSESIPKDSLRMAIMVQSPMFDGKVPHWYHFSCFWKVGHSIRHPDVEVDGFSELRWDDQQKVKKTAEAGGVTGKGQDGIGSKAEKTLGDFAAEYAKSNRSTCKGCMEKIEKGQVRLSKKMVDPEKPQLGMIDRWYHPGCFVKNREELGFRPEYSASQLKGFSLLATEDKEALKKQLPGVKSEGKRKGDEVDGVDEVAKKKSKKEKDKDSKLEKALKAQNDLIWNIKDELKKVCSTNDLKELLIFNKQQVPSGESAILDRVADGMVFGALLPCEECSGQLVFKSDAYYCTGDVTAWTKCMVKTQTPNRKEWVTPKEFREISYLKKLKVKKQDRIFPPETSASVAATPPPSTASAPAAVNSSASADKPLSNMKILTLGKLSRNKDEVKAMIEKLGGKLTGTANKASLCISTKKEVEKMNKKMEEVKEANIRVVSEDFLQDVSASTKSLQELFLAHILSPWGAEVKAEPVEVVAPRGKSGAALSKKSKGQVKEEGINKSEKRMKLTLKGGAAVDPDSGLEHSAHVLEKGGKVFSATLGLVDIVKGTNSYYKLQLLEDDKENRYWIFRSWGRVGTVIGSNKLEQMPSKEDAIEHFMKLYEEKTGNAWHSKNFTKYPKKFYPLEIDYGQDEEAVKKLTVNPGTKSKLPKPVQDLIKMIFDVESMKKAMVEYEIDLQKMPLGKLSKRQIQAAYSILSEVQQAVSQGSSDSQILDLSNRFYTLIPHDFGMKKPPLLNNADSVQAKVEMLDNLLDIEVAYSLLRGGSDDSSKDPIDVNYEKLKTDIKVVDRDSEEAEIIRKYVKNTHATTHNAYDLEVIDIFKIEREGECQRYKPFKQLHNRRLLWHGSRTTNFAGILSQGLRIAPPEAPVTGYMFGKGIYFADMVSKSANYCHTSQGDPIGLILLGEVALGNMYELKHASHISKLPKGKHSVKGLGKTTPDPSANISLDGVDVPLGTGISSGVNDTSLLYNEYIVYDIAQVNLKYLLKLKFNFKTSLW
Sequence of Poly [ADP-ribose] polymerase 2 (Q9UGN5 whole entry): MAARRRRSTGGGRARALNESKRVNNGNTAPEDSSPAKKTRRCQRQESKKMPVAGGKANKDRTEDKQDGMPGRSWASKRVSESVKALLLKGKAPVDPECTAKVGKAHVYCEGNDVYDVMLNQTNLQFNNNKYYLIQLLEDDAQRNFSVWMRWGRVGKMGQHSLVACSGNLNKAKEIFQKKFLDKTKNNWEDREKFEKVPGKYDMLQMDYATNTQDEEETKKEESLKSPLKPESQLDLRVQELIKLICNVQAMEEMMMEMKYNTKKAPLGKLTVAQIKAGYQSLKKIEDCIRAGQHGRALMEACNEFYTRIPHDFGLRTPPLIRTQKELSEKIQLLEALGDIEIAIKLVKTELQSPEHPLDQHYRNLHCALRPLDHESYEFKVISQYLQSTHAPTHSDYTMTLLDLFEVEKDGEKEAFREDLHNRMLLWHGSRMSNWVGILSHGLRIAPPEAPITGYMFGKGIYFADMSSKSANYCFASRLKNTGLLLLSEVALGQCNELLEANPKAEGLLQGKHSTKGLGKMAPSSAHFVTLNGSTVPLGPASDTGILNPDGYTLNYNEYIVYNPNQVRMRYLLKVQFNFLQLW

CC[C@@H]1CN(C(=O)c2cc(Cn3c(=O)[nH]c(=O)c4ccccc43)ccc2F)CCN1CC
half-life [1]: 48 min | inhibition (U-251 [2]): Active | inhibition (MX1): Active | T/C (U-87 MG [3]): 14.1% | Activity (Mus musculus [4]): 16.3 g | TGI (MDA-MB-436 [5]): 68% | bioavailability [6]: 48.3% | MRT last at 24 h [7]: 1.24 h | AUC(0-inf) [8]: 593 ng·h/mL | T1/2 [9]: 5.48 min | inhibition (U-251 [10]): Active | inhibition (T98G [11]): Active | inhibition (U-251 [12]): Active | AUC(0-t) at 24 h [13]: 34200 ng·h/mL | Tmax [14]: 30 min | AUC(0-t) at 24 h [15]: 1410 ng·h/mL | inhibition in vivo at 50 mg/kg (U-87 MG [16]): 85.9% | Activity (Mus musculus [17]): 15.3 g | IC50 [18]: 0.51 nM | Activity (Daoy): Active | MRT last at 24 h [19]: 1.31 h | Activity (U-87 MG [20]): 0 mm3 | Tmax [21]: 30 min | Activity (MDA-MB-436 [22]): Dose-dependent effect | LD50 at 336 h [23]: 3500 mg/kg | T/C (U-87 MG [24]): 12.1% | Activity (U-251 [25]): Active | inhibition (T98G [26]): Active | Kd [27]: 1.92 nM | MRT inf [28]: 1.37 h | Activity (A 172): Active | Ratio IC50 (Homo sapiens): 45 | MRT last at 24 h [29]: 4.58 h | AUC(0-inf) [30]: 34600 ng·h/mL | Cmax [31]: 208 ng/mL | MRT last at 24 h [32]: 55.2 min
